Data taken from patent US9834514B2, “Antibiotic sensitivity-restoring and photosensitive agents” (New Mexico Tech Research Foundation, priority 2015, dated 2017).
≈ marks a conversion by molar mass, not a printed value. Where two headings read alike, the source gives them in different places.

What was measured:
[1] = system: S. pyogenes (ATCC No. 8133); test: Light-activated killing, colony counts; format: cell-based; details: for Dark Toxicity: no light; for Light Toxicity: white light 2 minutes
Experimental: Dose-dependent effects of treating bacteria with compound 1 and irradiation with white light were assessed by treating 10^8 CFU/mL of cells with compound 1, followed by irradiation with white light for 2 minutes. Compound 1 was added at a specific concentration to 1 mL of a 10^8 CFU/mL suspension of the respective bacterial cells, and the cells were incubated at 37° C. for approximately 45 minutes on a rotary shaker at 150 rpm. 0.5 mL of the cell suspension was removed and placed into the wells of a sterile ceramic drop plate, and then the cells were irradiated with white light from a Lumacare™ LC 122A light source for 2 minutes at a distance of approximately 3 cm. The time and distance of the light application delivered about 85 J/cm^2 of 400-700 nm light to the sample. After being irradiated, ten-fold dilutions were made of each cell sample. The dilutions were drip-streaked onto a tryptic soy agar (TSA) plate and incubated at 37° C. for 18-24 hours. Enumeration of bacteria was determined from the dilution, which produced a drip-streak containing approximately 30-300 colonies. After counting the colonies, the CFU/mL was calculated by applying the respective dilution factor and a factor of 100 to account for the 10 μL of sample taken. Appropriate controls were prepared, including cells with no treatment, cells with only compound 1 added, and cells only treated with light.
The error bars in FIG. 12 represent the variations between three replicate determinations.

[2] = system: S. mutans (Ward's 85W 2357); test: MIC against S. mutans; format: cell-based; details: Streptococcus mutans; compound alone
Excerpt: The error bars in FIG. 13 represent the variations between three replicate determinations.

MRSA = test: Minimum bactericidal concentration (MBC) with and without white light; format: cell-based, S. aureus; details: Staphylococcus aureus, light or radiation study
Experimental: The bacterial media was inoculated with bacteria and incubated overnight. The bacterial cultures were diluted to 5×10^8 CFU/mL using a McFarland latex turbidity standard (0.5). Compound 1 was diluted with sterile DMSO, which was added to the cell suspension in glass culture tubes. The cells were then incubated for 30 minutes at 37° C. on a rotary shaking incubator at 150 rpm. 500 μL of the treated cell suspension was added to a well on a sterile ceramic drop plate. Non-coherent white light from a Lumacare™ LC-122 unit was used to irradiate the samples. The end of the light probe was placed 3 cm above the sample well, perpendicular to the surface of the sample, and light was applied for 2 minutes (15 seconds light, 15 seconds dark). 200 μL of the irradiated sample was transferred to a 96-well plastic microtiter plate and five ten-fold dilutions were made in the media. 10 μL of each dilution was dripped onto an agar media plate and was allowed to streak down the plate by tilting the plate down. The agar plates were incubated at 37° C. overnight and colony counts were performed to calculate the CFU/mL.
TABLE 14 details the MBC values of compounds 1-6 against MRSA with and without irradiation with white light. Irradiation involved treatment with a LumaCare™ light source at 3 cm from media for 1 min.

[3] = system: A549 (human lung carcinoma); test: Light-activated killing of cell lines (IC50 with/without light); format: cell-based
Experimental: (§1) TABLE 15 depicts the IC50 of compounds in the presence or absence of light for human cell lines. The cell lines used were HeLa (human cervical adenocarcinoma), U-87 MG (human brain gliobastoma), MES-SA (human uterine sarcoma), MES-SA/D×5 (human uterine sarcoma grown in presence of doxorubicin), NCI-H441 (human lung papillary adenocarcinoma), A549 (human lung carcinoma), WI-38 (human embryonic lung normal), MCF7 (human breast adenocarcinoma), SW1088 (human brain astrocytoma), B16F10 (mouse skin melanoma), NIH-3T3 (mouse fibroblast), and Jurkat (human lymphoblastoma). “1-Sol” in TABLE 15 was generated by dissolving compound 1 and potassium hydroxide at a 1:1 ratio in a DMSO/water solution. The cells were irradiated with continuous white light using a LumaCare™ light source for 2 minutes at a distance of 6.5 cm from the cells.

[4] = system: B16F10 (mouse skin melanoma); test: as above; format: cell-based
Experimental: as §1

[5] = system: Jurkat (human lymphoblastoma); test: as above; format: cell-based
Experimental: as §1

[6] = system: MCF7 (human breast adenocarcinoma); test: as above; format: cell-based
Experimental: as §1

MCF7A = test: as above; format: cell-based
Experimental: as §1

[7] = system: MES-SA (human uterine sarcoma); test: as above; format: cell-based
Experimental: as §1

[8] = system: MES-SA/Dx5 (human uterine sarcoma grown in presence of doxorubicin); test: as above; format: cell-based
Experimental: as §1

[9] = system: NCI-H441 (human lung papillary adenocarcinoma); test: as above; format: cell-based
Experimental: as §1

[10] = system: SW1088 (human brain astrocytoma); test: as above; format: cell-based
Experimental: as §1

[11] = system: U-87 MG (human brain gliobastoma); test: as above; format: cell-based
Experimental: as §1

[12] = system: WI-38 (human embryonic lung normal); test: as above; format: cell-based
Experimental: as §1

[13] = system: S. mutans Ward's 85W 2357; test: Resensitization to antibiotics (log reduction, TABLE 29); format: cell-based; details: compound 1 μM; Light (2 min)
[14] = Stability of the formulation at 40° C. (dynamic light scattering); format: physicochemical; details: in DMSO
Experimental: The stability of the formulation was determined using dynamic light scattering (DLS) to measure the mean size and standard deviation, both of which remained consistent. The experiments were repeated after the indicated periods, and the outcome of compound 1 photodynamic therapy was essentially the same in terms of cell killing.

[15] = 2 min, white light 2 minutes, read-out: Compound + light IC50
[16] = no light, read-out: Compound IC50

For `Clc1ccc(/C=C/c2[nH]c3ccccc3c2/C=C/c2ccc(Cl)cc2)cc1` [Compound 1], the “Dark Toxicity” value ([1]; 0.1 μM) was 7.13 × 10^6 ± 1.10 × 10^6 CFU/mL, the “Light Toxicity” value ([1]; 0.1 μM) was “None Detected (<100 CFU/mL)” and the “Dark Toxicity” value ([1]; 0.5 μM) was 1.40 × 10^6 ± 7.05 × 10^5 CFU/mL. The “Light Toxicity” value ([1]; 0.5 μM) was “None Detected (<100 CFU/mL)”, the “Dark Toxicity” value ([1]; 1.0 μM) was 4.13 × 10^6 ± 9.07 × 10^5 CFU/mL and the “Light Toxicity” value ([1]; 1.0 μM) was “None Detected (<100 CFU/mL)”. The “Dark Toxicity” value ([1]; 5.0 μM) was 5.01 × 10^5 ± 4.07 × 10^5 CFU/mL, the “Light Toxicity” value ([1]; 5.0 μM) was “None Detected (<100 CFU/mL)” and the MIC [2] was 50 to 100 µM (≈ 19.5 to 39 µg/mL). The MBC (MRSA; 1 min, LumaCare light source at 3 cm from media for 1 min, read-out: MBC with irradiation) was 1 µM (≈ 0.39 µg/mL), the MBC (MRSA; no irradiation, read-out: MBC in the dark) was 200 µM (≈ 78.1 µg/mL) and the IC50 [3, 15] was 840 ± 320 nM. For the same molecule, the IC50 [3, 16] was 17400 ± 1520 nM, the IC50 ([4]; B16-F10, 2 min, white light 2 minutes, read-out: Compound + light IC50) was 410 ± 220 nM and the IC50 ([4]; B16-F10, no light, read-out: Compound IC50) was 18700 ± 990 nM. It also gave an IC50 [5, 15] of 25 nM, an IC50 [5, 16] of over 10000 nM and an IC50 [6, 15] of 330 ± 40 nM. The IC50 [6, 16] was 17800 ± 220 nM, the IC50 (MCF7A; [15]) was 400 ± 10 nM and the IC50 (MCF7A; [16]) was 24500 ± 200 nM. It also gave an IC50 [7, 15] of 360 ± 50 nM, an IC50 [7, 16] of 42700 ± 3400 nM and an IC50 ([8]; Homo sapiens, MES-SA/Dx5, 2 min, MES-SA/Dx5 (no doxorubicin), white light 2 minutes, read-out: Compound + light IC50) of 720 ± 70 nM. For the same molecule, the IC50 ([8]; Homo sapiens, MES-SA/Dx5, 2 min, MES-SA/Dx5 + doxorubicin, white light 2 minutes, read-out: Compound + light IC50) was 440 ± 100 nM, the IC50 ([8]; Homo sapiens, MES-SA/Dx5, MES-SA/Dx5 + doxorubicin, no light, read-out: Compound IC50) was 38800 ± 2760 nM and the IC50 ([8]; MES-SA/Dx5 (no doxorubicin), white light 2 minutes, read-out: Compound + light IC50) was 620 ± 30 nM. It also gave an IC50 [9, 15] of 760 ± 70 nM, an IC50 [9, 16] of 50700 ± 4370 nM and an IC50 [10, 15] of 470 ± 30 nM. It also gave an IC50 [10, 16] of over 50000 nM, an IC50 ([11]; 2 min, U-87 MG (spheroids), white light 2 minutes, read-out: Compound + light IC50) of 450 nM and an IC50 [11, 15] of 560 ± 20 nM. For the same molecule, the IC50 ([11]; U-87 MG (spheroids), no light, read-out: Compound IC50) was over 40000 nM, the IC50 [11, 16] was 44600 ± 3680 nM and the IC50 [12, 15] was 330 ± 80 nM. For the same molecule, the IC50 [12, 16] was 63400 ± 5480 nM, the “Log Reduction” value [13] was 5-6 and the “Stability at 40° C.” value [14] was over 2 months.
